In patent publication US20070161644A1, “Erastin analogs and uses thereof” (priority 2005, published 2007):

Experiments:
Assay in all cases: Calcein AM viability assay, dilution series
Format in all cases: cell-based, human
Conditions in all cases: 50% inhibition of calcein AM staining; 16-point two-fold dilution; two days
[1] = system: BJ primary cells
From the text: (§1) Described here is work carried out to identify compounds with increased potency or activity in the presence of hTERT, LT, ST, E6, E7 or RAS^V12. Although the work described herein made use of hTERT, LT, ST, E6, E7 and RAS^V12 as transforming genes, future studies can make use of a wide variety of cancer-associated alleles using this methodology in order to define the signaling networks that involve many oncogenes and tumor suppressors. Engineered cell lines with these genetic elements were used to screen 23,550 compounds, including 20,000 compounds from a combinatorial library, 1,990 compounds from the National Cancer Institute diversity collection, and 1,540 biologically active known compounds that were selected and purchased by Applicant and formatted into a screenable collection. The primary screen tested (in quadruplicate) the effect of treating tumorigenic BJ-TERT/LT/ST/RAS^V12 engineered tumorigenic cells with each compound for 48 hours at a concentration of 4 μg/mL, corresponding to 10 μM for a compound with a molecular weight of 400, which is the approximate median molecular weight of the libraries. Cell viability was measured using the dye calcein acetoxymethyl ester (calcein AM) (Wang et al., 1993, Hum. Immunol. 37, 264-270), which is a non-fluorescent compound that freely diffuses into cells. In live cells, calcein AM is cleaved by intracellular esterases, forming the anionic fluorescent derivative calcein, which cannot diffuse out of live cells. […] The IC50 value (concentration required to inhibit 50% of the calcein AM signal) was calculated for each compound in each cell line (Table 1). […] Following is a more detailed analysis of these nine compounds.
(§2) Calcein acetoxylmethyl ester (AM) is a cell membrane-permeable, non-fluorescent compound that is cleaved by intracellular esterases to form the anionic, cell-impermeable, fluorescent compound calcein. Viable cells are stained by calcein because of the presence of intracellular esterases and because the intact plasma membrane prevents fluorescent calcein from leaking out of cells (Wang et al., 1993, supra). Cells were seeded in 384-well plates using a Zymark Sciclone ALH, treated with each compound in triplicate at 4 μg/mL in the primary screen for two days, washed with phosphate-buffered saline on a Packard Minitrak with a 384-well washer and incubated for four hours with 0.7 μg/mL calcein (Molecular Probes). Total fluorescence intensity in each well was recorded on a Packard Fusion platereader, and converted to a percent inhibition of signal by subtracting the instrument background and dividing by the average signal obtained when cells were not treated with any compound.
(§3) Compounds to be retested were purchased from manufacturers. Stocks were prepared in DMSO at a concentration of 1 mg/ml in 384-well polypropylene plates with a 16-point, two-fold dilution dose curve of each compound in a column, in duplicates. Column 1-2 and 23-24 were left empty for controls. Daughter retest plates were prepared from stock retest plate by diluting 66.6 fold in DMEM in 384-well deep-deep well plates (4.5 μl transfer into 300 μl). Cells were seeded at a density of 6000 per well in 40 μl, and 20 μl was added from a daughter retest plate. The plates were incubated for two days at 37° C. with 5% CO2.
(§4) Mean RFU (relative fluorescence units) for untreated cells was calculated by averaging columns 1, 2, and 23 (wells with cells but lacking compounds). The calcein background was calculated by averaging column 24 (wells with calcein, but lacking cells). Percentage inhibition of each well was calculated as [1−(RFU−calcein control)/(untreated cell−calcein control)*100]. Compounds causing at least 50% inhibition of calcein staining in the primary screen were tested for selectivity towards BJ-TERT/LT/ST/RAS^V12 engineered tumor cells by testing in BJ primary and BJ-TERT/LT/ST/RAS^V12 cells at a range of concentrations. Selective compounds were retested in all engineered cell lines.

[2] = system: BJ-TERT/LT/RAS^V12/ST cells
From the text: as §1, §2, §3, §4

[3] = system: BJ-TERT/LT/ST cells
From the text: as §1, §2, §3, §4

[4] = system: TIP5/TERT cells
From the text: as §1, §2, §3, §4

[5] = system: TIP5/TERT/E6/E7 cells
From the text: as §1, §2, §3, §4

[6] = system: TIP5/TERT/E6/E7/ST cells
From the text: as §1, §2, §3, §4

[7] = system: TIP5/TERT/E6/E7/ST/RAS^V12 cells
From the text: as §1, §2, §3, §4

[8] = system: TIP5/TERT/LT cells
From the text: as §1, §2, §3, §4

[9] = system: TIP5/TERT/LT/ST/RAS^V12 cells
From the text: as §1, §2, §3, §4

[10] = system: BJ-TERT/LT/ST/RAS^V12 cells
Experimental: Described here is work carried out to identify compounds with increased potency or activity in the presence of hTERT, LT, ST, E6, E7 or RAS^V12. Although the work described herein made use of hTERT, LT, ST, E6, E7 and RAS^V12 as transforming genes, future studies can make use of a wide variety of cancer-associated alleles using this methodology in order to define the signaling networks that involve many oncogenes and tumor suppressors. […] Cell viability was measured using the dye calcein acetoxymethyl ester (calcein AM) (Wang et al., 1993, Hum. Immunol. 37, 264-270), which is a non-fluorescent compound that freely diffuses into cells. […]
Calcein acetoxylmethyl ester (AM) is a cell membrane-permeable, non-fluorescent compound that is cleaved by intracellular esterases to form the anionic, cell-impermeable, fluorescent compound calcein. […] Total fluorescence intensity in each well was recorded on a Packard Fusion platereader, and converted to a percent inhibition of signal by subtracting the instrument background and dividing by the average signal obtained when cells were not treated with any compound. […]
Mean RFU (relative fluorescence units) for untreated cells was calculated by averaging columns 1, 2, and 23 (wells with cells but lacking compounds). The calcein background was calculated by averaging column 24 (wells with calcein, but lacking cells). […]

**Q.** For `Cc1c2ccccc2c(CSC(=N)N)c2ccccc12.Cl` [NSC146109], which “IC50 BJ” value [1] is on record?
**A.** >5 µg/mL

**Q.** What about the “IC50 BJ-TERT/LT/Ras^v12/ST” value [2] of the same compound?
**A.** 2.5 µg/mL

**Q.** What about the “IC50 BJ-TERT/LT/ST” value [3] of the same compound?
**A.** 2.5 µg/mL

**Q.** What about the “IC50 TIP5-TERT” value [4] of the same compound?
**A.** >5 µg/mL

**Q.** What about the “IC50 TIP5-TERT/E6E7” value [5] of the same compound?
**A.** 2.5 µg/mL

**Q.** What about the “IC50 TIP5-TERT/E6E7/ST” value [6] of the same compound?
**A.** 2.5 µg/mL

**Q.** And the “IC50 TIP5-TERT/E6E7/ST/Ras^v12” value [7]?
**A.** 2.5 µg/mL

**Q.** And the “IC50 TIP5-TERT/LT” value [8]?
**A.** >5 µg/mL

**Q.** And the “IC50 TIP5-TERT/LT/ST/Ras^v12” value [9]?
**A.** 2.5 µg/mL

**Q.** And the “IC50 BJ-TERT/LT/ST/Ras^v12” value [10]?
**A.** 2.5 µg/mL
